Several values for one entry are separate records, joined by “and”; a condition that tells them apart may be missing. Equal entries are not always repeated. Where two headings read alike, the source gives them in different places. One block for each compound: values may come before it.
Key:
Rad51-BRC repeat binding = molecular target: T1, Rad51-BRC repeat binding (Homo sapiens, UniProt Q06609); test: SPR (Biacore) competitive binding assay, solution competition format
T1 sequence (Q06609 1-339): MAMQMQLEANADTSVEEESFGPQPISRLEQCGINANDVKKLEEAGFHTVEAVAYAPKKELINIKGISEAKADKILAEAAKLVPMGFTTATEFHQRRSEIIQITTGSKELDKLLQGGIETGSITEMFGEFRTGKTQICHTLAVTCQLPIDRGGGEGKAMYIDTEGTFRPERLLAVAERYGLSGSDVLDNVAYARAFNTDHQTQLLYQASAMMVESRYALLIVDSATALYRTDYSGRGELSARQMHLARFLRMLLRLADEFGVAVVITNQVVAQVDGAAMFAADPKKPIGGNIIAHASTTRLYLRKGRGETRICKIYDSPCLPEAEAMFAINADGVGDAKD
Experimental: Therefore, the 5-position of indole ring may provide a potential site for further modification. The inventors also noticed that there is a chiral center in the IBR compounds as marked by an asterisk in FIG. 1B. Initially, the inventors separated these two enantiomers by chiral HPLC (Regis Whelk-O1, Hexane:isopropanol=75:25) as shown in chromatogram of FIG. 1C and determined the absolute configuration by X-ray crystallography. […] Here, the inhibition of Rad51-BRC repeat binding was analyzed by SPR in a solution competition format.
Successful entities are then analyzed with Biacore's surface plasmon resonance (SPR) technique in a solution competition format to determine their median inhibitory concentration on Rad51. Briefly, the assays are performed on a Biacore 3000 (Biacore Inc.) using a Sensor chip NTA (Biacore Inc.) for capturing His-tagged Rad51 protein. The concentration of BRC protein is kept constant. Compounds are dissolved in DMSO at 20 mM and serially diluted in each BRC test sample. The assays are performed at 25° C. in running buffer (10 mM HEPES, 150 mM NaCl, 0.1% DMSO). Relative BRC-Rad51 binding percentage in the presence of inhibitors is calculated. The experiments are carried out in triplicate and averaged. The best-fit competitive binding curve is drawn and median inhibitory concentration of each candidate compound is obtained. The results of these assays are thought to help to establish a quantitative structure-activity relationship, which in turn guides further optimization of the positive hits.
To further determine the binding affinity of IBR2 to Rad51, the inventors then used a Biacore competitive binding assay.

BRC repeat = test: SPR compound pretreatment, immobilized BRC repeat; format: binding
Experimental: (§1) To determine whether it was Rad51 or BRC repeat that actually served as a direct target of these compounds, surface plasmon resonance (SPR) was employed to detect the inhibition of protein binding by compound pretreatment. In principle, one of the proteins was attached to the sensor chip, and IBR compounds were allowed to pass through the surface; then, the binding of the second protein was measured. If IBR compounds bind the immobilized protein, the binding of the second protein will be reduced; otherwise, the binding capacity of second protein will be mostly retained.

Rad51 [1] = molecular target: T2, Rad51 (Homo sapiens, UniProt Q06609); test: gel filtration profile of Rad51 (multimerization); format: biochemical; conditions: data not shown
T2 sequence (Q06609 1-339): T1 sequence (Q06609 1-339)
Experimental: To test this possibility, the inventors then compared the gel filtration profile of Rad51 incubated in the presence or absence of IBR2. […] The inventors then aligned the 3D structure of IBR2 with the BRC4 hairpin structure and the Rad51 oligomerization motif together. […] Therefore, one possibility of the action mechanism is that IBR compounds, by mimicking Phe1524 of BRCA2, may block the entrance of the hydrophobic binding pocket on Rad51 core domain, and inhibit BRCA2/Rad51 interaction as well as Rad51 multimerization.

Rad51 [2] = molecular target: T2, Rad51; test: SPR compound pretreatment, immobilized Rad51; format: binding
Experimental: as §1

Ba/F3-T315I cells [3] = test: survival of NOD/SCID mice injected with Ba/F3-T315I cells; format: in vivo; conditions: 100 mg/kg, 30 days, vs vehicle, p<0.01
Ba/F3-T315I cells [4] = test: Western blot of protein expression; format: cell-based, murine; conditions: 20 μM IBR2 alone, within 12-24 hours
From the text: Direct targeting to Rad51 may provide a potential strategy to overcome this type of resistance. […] Next, the inventors examined the effects of IBR2 treatment on the protein expression levels in these cells by western blot.

[5] = test system: Ba/F3 cells carrying BCR-ABL expression; test: Western blot of BCR-ABL/Stat5/Rad51 pathway; format: cell-based, murine
Experimental: (§2) To examine the consequence of the BCR-ABL/Stat5/Rad51 regulatory pathway, the protein expression as well as their phosphorylation states in IBR2-treated cells were analyzed by Western blot. […] On the contrary, there was little effect on Ba/F3 parental cells. The decrease of Rad51 expression in IBR2-treated cells is consistent with the inventors′ earlier observation that IBR2 induces Rad51 degradation mediated by proteasome in breast cancer cells. Furthermore, the inventors performed the same set of experiments using compound B6, which has no inhibitory activity to Rad51 in vitro.

[6] = test system: Rad51 foci formation in MCF-7 breast cancer cells; test: IR-induced Rad51 foci formation assay; format: cell-based
Experimental: These compounds were then tested for their effects on the IR-induced Rad51 foci formation in MCF-7 breast cancer cells. […] These compounds were then tested for their effects on the IR-induced Rad51 foci formation in MCF-7 breast cancer cells as also described in WO 2006/044933.

[7] = test system: Ba/F3 cells expressing T315I BCR-ABL; test: XTT growth inhibition; format: cell-based, murine; conditions: Mus musculus, BaF3, 48 hr
Experimental: (§3) In CML cells, the constitutively active BCR-ABL is responsible for maintaining high levels of Rad51 activity by direct activation through phosphorylation and transcriptional up-regulation mediated by STAT5. It is therefore contemplated that inhibition of Rad51 activity by IBR2 may have detrimental effects on CML. To test this possibility, murine hematopoietic Ba/F3 progenitor cells expressing different versions of BCR-ABL (e.g., wild-type, T315I, and E255K) mutants were treated with IBR2 at indicated concentrations for 48 hr, and growth inhibition was then determined by XTT (sodium 3′-[1-(phenylaminocarbonyl)-3,4-tetrazolium]-bis(4-methoxy-6-nitro) benzene sulfonate) assay. […] To further test whether the growth inhibition was resulted from cell death or cytostatic effect of IBR2 treatment, the inventors then determined the percentages of annexin V positive cells, which is indicative of cell death, after IBR2 treatment.

[8] = test system: BCR-ABL-expressing Ba/F3 cells; test: XTT growth inhibition; format: cell-based, murine; conditions: 48 hr
Experimental: as §3
as §2, with “Furthermore, the inventors performed the same set of experiments using compound B6, which has no inhibitory activity to Rad51 in vitro.” left out

[9] = test system: Ba/F3 cells expressing WT, T315I or E255K BCR-ABL; test: annexin V positive cells (apoptosis); format: cell-based, murine; conditions: dose dependent
Experimental: as §3

Ba/F3-p210 cells [10] = test: percentage of apoptotic cells; format: cell-based, murine; conditions: 48 hours
From the text: Since Rad51 and BCR-ABL are in the same pathway essential for cell survival, it was contemplated that simultaneous treatment of Ba/F3-p210 cells with both inhibitors may synergistically enhance the cell death. […] Exemplary results are depicted in FIGS. 4A and 4B.

Ba/F3-p210 cells [11] = test: median-effect and Combination Index analysis (Chou's method); format: cell-based, murine; conditions: Mus musculus, read-out: median-effect dose (Dm)
Ba/F3-T315I = test: cell growth (viable cell count / XTT); format: cell-based; conditions: 0 to 20 μM, up to three days, dose-dependent
Experimental: (§4) The inventors also examined the effect of IBR2 on growth of Ba/F3 expressing wild type Bcr-Abl-P210 and Bcr-Abl mutant isoform T315I. […] FIG. 9 illustrates the effect of IBR2 on parental Ba/F3 cells and Ba/F3 cells expressing WT Bcr-Abl or Bcr-Abl mutant isoform T315I cells. […] After 72 hours of incubation, proliferation was measured by XTT-based method. Absorbance was measured at 490 nm in a microplate reader. Bars are SD, n=2.

Ba/F3-P210 = test: cell growth (viable cell count / XTT); format: cell-based; conditions: 0 to 20 μM, up to three days, dose-dependent
Experimental: as §4

BRC-RAD51 interaction = molecular target: T3, BRC-RAD51 interaction (Homo sapiens, UniProt Q06609); test: inducible reverse yeast two-hybrid screening; format: cell-based
T3 construct: expressed in transfected cells; host or cells: yeast strain harboring a TetOp-driven URA3 gene
T3 sequence (Q06609 1-339): T1 sequence (Q06609 1-339)
From the text: Briefly, two fusion proteins, the TetR-BRC fusion protein (TetR/NCB, constitutively expressed) and the Rad51-activation domain fusion protein (AD/Rad51, expressed under the GAL1 promoter), worked together as a transcriptional activator in a yeast strain harboring a TetOp-driven URA3 gene. The interaction between these two fusion proteins induced the expression of URA3 gene, and the toxic metabolite from 5-FOA in the medium caused cell death. If the small molecules tested inhibited TetR/BRC/AD/Rad51 interaction, URA3 expression was abolished and cells are allowed to grow.
The reverse yeast two-hybrid system is used to perform the second round screening of the modified small compounds. TetR/NCB fission protein which contains BRC1-4 repeats (TetR/NCB) are expressed constitutively; the expression of a RAD51-GAL4 Activation Domain fusion protein (AD/RAD51) is rendered galactose-inducible under GAL1 promoter. Yeast is grown on a galactose medium containing 5-FOA. The assay is performed on 96-well plates. Small molecule compounds are added into the medium at the concentration of 10 mM in the total volume of 100 ml. The compounds that can disrupt the BRC-RAD51 interaction are identified by the viability of the yeast.

[12] = test system: human blast crisis CML K562 cells; test: percentage of apoptotic cells; format: cell-based
Ba/F3-T315I cells [13] = test: induction of cell death; format: cell-based, murine; conditions: 20 μM IBR2 alone
Ba/F3 parental cells [14] = test: XTT growth inhibition; format: cell-based, murine; conditions: 48 hr
Ba/F3 parental cells [15] = test: Western blot of protein expression; format: cell-based, murine; conditions: IBR2-treated
Experimental: To examine the consequence of the BCR-ABL/Stat5/Rad51 regulatory pathway, the protein expression as well as their phosphorylation states in IBR2-treated cells were analyzed by Western blot.

K562 cells = test: Western blot of protein expression; format: cell-based, human; conditions: imatinib, absence of IBR2
From the text: The inventors then examined the protein expression levels of Rad51, BCR-ABL and Stat5 by western blot analysis.

Ba/F3-p210 cells [16] = test: Western blot of protein expression; format: cell-based, murine; conditions: 0.1-0.6 μM imatinib, absence of IBR2
From the text: The inventors then examined the effects of co-treatment on Rad51, BCR-ABL, and Stat5 protein expression levels as described above.

[17] = SPR, solution competition format, read-out: median inhibition concentration

Compound: O=S(=O)(Cc1ccccc1)N1C=Cc2ccccc2C1c1c[nH]c2ccccc12 (racemic) [IBR2]
IC50 (Rad51-BRC repeat binding; [17]): ~115 nM

Compound: O=S(=O)(Cc1ccccc1)N1C=Cc2ccccc2C1c1c[nH]c2ccccc12 (centres unmarked) [IBR2]
binding of immobilized BRC repeat to Rad51 after compound pretreatment (BRC repeat): did not affect
Rad51 elution profile (multimerization) (Rad51 [1]): major peak consistent with the molecular weight of a monomer
binding of BRC repeat to immobilized Rad51 after compound pretreatment (Rad51 [2]): lost the ability to bind BRC repeat
survival of mice (Ba/F3-T315I cells [3]): significantly prolonged survivals
protein expression levels of Rad51, BCR-ABL, p-BCR-ABL and p-Stat5 (Ba/F3-T315I cells [4]): dramatically reduced
Rad51, BCR-ABL and phosphorylated Stat5 (p-Stat5) levels [5]: dose-dependent decreases
c-Abl, p-c-Abl and total Stat5 protein [5]: unchanged
IR-induced Rad51 foci formation [6]: dramatically reduced Rad51 foci formation
IR-induced Rad51 foci formation ([6]; listed as NS7798): positive
IC50 [7]: 12000 nM
IC50 (Rad51-BRC repeat binding; Biacore competitive binding assay, read-out: IC50): 110 nM
proliferation [8]: inhibited the proliferation
apoptosis (annexin V positive cells) [9]: induced apoptosis
apoptotic cells (Ba/F3-p210 cells [10]; IBR2 5 μM): about 1.7%
apoptotic cells (Ba/F3-p210 cells [10]; IBR2 10 μM): ~4.1%
apoptotic cells (Ba/F3-p210 cells [10]; IBR2 15 μM alone): < 10% and ~12.6%
apoptotic cells (Ba/F3-p210 cells [10]; IBR2 20 μM): ~57.1%
EC50 (Ba/F3-p210 cells [11]): 13900 nM
cell growth (Ba/F3-T315I): significantly inhibited the growth
cell growth (Ba/F3-P210): significantly inhibited the growth
yeast two-hybrid screening (BRC-RAD51 interaction): positive
apoptotic percentage ([12]; IBR2 15 μM alone): ~10%
cell death (Ba/F3-T315I cells [13]): over 80%
proliferation (Ba/F3 parental cells [14]): much less
protein expression and phosphorylation (Ba/F3 parental cells [15]): little effect

IC50 (Rad51-BRC repeat binding; [17]): ~1 nM
Compound: O=S(=O)(Cc1ccccc1)N1C=Cc2ccccc2[C@@H]1c1c[nH]c2ccccc12 [R-IBR2]

Compound: Cc1ccc(NC(=O)c2ccc(CN3CCN(C)CC3)cc2)cc1Nc1nccc(-c2cccnc2)n1 [imatinib]
Rad51, BCR-ABL, p-BCR-ABL, p-Stat5 levels (K562 cells): decreased in a dose dependent manner
Stat5 protein level (K562 cells): did not affect
Rad51, BCR-ABL, p-BCR-ABL and p-Stat5 levels (Ba/F3-p210 cells [16]): modestly decreased
Stat5 protein level (Ba/F3-p210 cells [16]): did not influence
apoptotic cells (Ba/F3-p210 cells [10]; imatinib 0.1 μM): about 6.8%
apoptotic cells (Ba/F3-p210 cells [10]; imatinib 0.2 μM): ~7.6% and ~10%
apoptotic cells (Ba/F3-p210 cells [10]; imatinib 0.4 μM): ~23.1%
apoptotic cells (Ba/F3-p210 cells [10]; imatinib 0.6 μM): ~39.3%
apoptotic percentage ([12]; imatinib 0.1 μM): about 9.7%
apoptotic percentage ([12]; imatinib 0.2 μM): ~11.8%
apoptotic percentage ([12]; imatinib 0.6 μM): ~28.1%

Source: patent US9012455B2, “Pharmaceutical compositions containing an indoyl isoquinoline containing compound and uses thereof” (The Regents of the University of California, priority 2006, dated 2015)
